The values below come from US10023558B2, “Compounds” (CHIESI FARMACEUTICI S.P.A., priority 2016, dated 2018).

This assay concerns the target T1, human neutrophil elastase (HNE) (Homo sapiens, UniProt P08246).
T1 construct: purchased Sigma E8140
T1 sequence (P08246 30-247 limits assumed): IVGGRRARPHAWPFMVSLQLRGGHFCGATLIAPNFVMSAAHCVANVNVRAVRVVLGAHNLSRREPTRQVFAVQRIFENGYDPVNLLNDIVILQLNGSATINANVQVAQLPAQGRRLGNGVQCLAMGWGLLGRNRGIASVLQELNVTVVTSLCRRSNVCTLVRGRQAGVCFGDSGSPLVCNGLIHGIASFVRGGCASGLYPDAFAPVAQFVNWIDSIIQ
In words: HNE Enzyme Assay (fluorogenic peptide substrate MeOSuc-Ala-Ala-Pro-Val-AMC). In kind it is biochemical. As to conditions: human leukocyte elastase 0.00072 U/mL, substrate 100 μM, 25° C., 30 minutes, at least two separate experiments; read-out: HNE inhibition (IC50 values). Here is the method:
Compounds of this invention were tested for potency in a human neutrophil elastase (HNE) enzyme activity assay.
Assays were performed in 96-well plates in a total assay volume of 100 μL. The final concentration of elastase enzyme (human leukocyte elastase, Sigma E8140) was 0.00072 U/mL. The peptide substrate (MeOSuc-Ala-Ala-Pro-Val-AMC, Calbiochem #324740) was used at a final concentration of 100 μM. The final concentration of DMSO was 1% in the assay buffer (0.05M Tris.HCl, 0.1M NaCl, 0.1M CaCl2, 0.0005% Brij-35, pH 7.5). The enzymatic reaction was started by addition of the enzyme and incubated at 25° C. for 30 minutes. After incubation, the reaction was stopped by addition of soybean trypsin inhibitor (Sigma T9003) at a final concentration of 50 μg/well. Fluorescence was measured using a Molecular Devices fluorescence plate reader using 380 nm excitation and 460 nm emission wavelengths.
A concentration response to each compound was performed and the effect of compound in each experiment was expressed as a percentage inhibition of the control enzyme fluorescence. Dose response curves were plotted and compound potency (IC50) was determined. Compounds were tested in at least two separate experiments.

Take `Cc1c(-c2ccnn2-c2ccc(C#N)cc2)n(C(=O)N[C@@H]2C[C@@H]3CN(C(=O)OC(C)(C)C)C[C@@H]3C2)c(=O)n1-c1cccc(C(F)(F)F)c1` [Example 10, (3aS,5R,6aR)-5-{[5-[2-(4-Cyano-phenyl)-2H-pyrazol-3-yl]-4-methyl-2-oxo-3-(3-trifluoromethyl-phenyl)-2,3-dihydro-imidazole-1-carbonyl]-amino}-hexahydro-cyclopenta[c]pyrrole-2-carboxylic acid tert-butyl ester]: the IC50 is under 1 nM. Consider `Cc1c(-c2ccnn2-c2ccc(C#N)cc2)n(C(=O)NC(C)(C)c2ncc(C[N+](C)(C)C)o2)c(=O)n1-c1cccc(C(F)(F)F)c1` [Example 78, [2-(1-{[5-[2-(4-Cyano-phenyl)-2H-pyrazol-3-yl]-4-methyl-2-oxo-3-(3-trifluoromethyl-phenyl)-2,3-dihydro-imidazole-1-carbonyl]-amino}-1-methyl-ethyl)-oxazol-5-ylmethyl]-trimethyl-ammonium benzene sulfonate], for which the IC50 is under 1 nM.

Regarding `CC[N+]1(CC)CCC(NC(=O)n2c(-c3ccnn3-c3ccc(C#N)cc3)c(C)n(-c3cccc(C(F)(F)F)c3)c2=O)CC1` [Example 40, 4-{[5-[2-(4-Cyano-phenyl)-2H-pyrazol-3-yl]-4-methyl-2-oxo-3-(3-trifluoromethyl-phenyl)-2,3-dihydro-imidazole-1-carbonyl]-amino}-1,1-diethyl-piperidinium benzene sulfonate], the IC50 is under 1 nM.

Turning to `Cc1c(-c2ccnn2-c2ccc(C#N)cc2)n(C(=O)N[C@@H](C)c2ncc(CN(C)C)o2)c(=O)n1-c1cccc(C(F)(F)F)c1` [Example 16, 5-[2-(4-Cyano-phenyl)-2H-pyrazol-3-yl]-4-methyl-2-oxo-3-(3-trifluoromethyl-phenyl)-2,3-dihydro-imidazole-1-carboxylic acid [(S)-1-(5-dimethylaminomethyl-oxazol-2-yl)-ethyl]-amide], the IC50 is under 1 nM. Under `Cc1c(-c2ccnn2-c2ccc(C#N)cc2)n(C(=O)N[C@@H](C)c2nnc(C[N+](C)(C)C)o2)c(=O)n1-c1cccc(C(F)(F)F)c1` [Example 63, [5-((S)-1-{[5-[2-(4-Cyano-phenyl)-2H-pyrazol-3-yl]-4-methyl-2-oxo-3-(3-trifluoromethyl-phenyl)-2,3-dihydro-imidazole-1-carbonyl]-amino}-ethyl)-[1,3,4]oxadiazol-2-ylmethyl]-trimethyl-ammonium benzene sulfonate] stands under 1 nM. As for `Cc1c(-c2ccnn2-c2ccc(C#N)cc2)n(C(=O)NC2(C)CCN(C(=O)CN(C)C)CC2)c(=O)n1-c1cccc(C(F)(F)F)c1` [Example 25, 5-[2-(4-Cyano-phenyl)-2H-pyrazol-3-yl]-4-methyl-2-oxo-3-(3-trifluoromethyl-phenyl)-2,3-dihydro-imidazole-1-carboxylic acid [1-(2-dimethylamino-acetyl)-4-methyl-piperidin-4-yl]-amide], the concentration for half-maximal inhibition (IC50) was under 1 nM. With `Cc1c(-c2ccnn2-c2ccc(C#N)cc2)n(C(=O)N[C@@H](C)C(=O)N2CCC(N(C)C)CC2)c(=O)n1-c1cccc(C(F)(F)F)c1` [Example 19, 5-[2-(4-Cyano-phenyl)-2H-pyrazol-3-yl]-4-methyl-2-oxo-3-(3-trifluoromethyl-phenyl)-2,3-dihydro-imidazole-1-carboxylic acid [(S)-2-(4-dimethylamino-piperidin-1-yl)-1-methyl-2-oxo-ethyl]-amide], the IC50 was under 1 nM. As to `Cc1c(-c2ccnn2-c2ccc(C#N)cc2)n(C(=O)N[C@H]2CC[C@H](C[N+](C)(C)Cc3ccccc3)CC2)c(=O)n1-c1cccc(C(F)(F)F)c1` [Example 30, Benzyl-(trans-4-{[5-[2-(4-cyano-phenyl)-2H-pyrazol-3-yl]-4-methyl-2-oxo-3-(3-trifluoromethyl-phenyl)-2,3-dihydro-imidazole-1-carbonyl]-amino}-cyclohexylmethyl)-dimethyl-ammonium bromide], the IC50 is under 1 nM. For the compound `Cc1c(-c2ccnn2-c2ccc(C#N)cc2)n(C(=O)N[C@H]2C[C@H]3CC[C@@H](C2)[N+]3(C)C)c(=O)n1-c1cccc(C(F)(F)F)c1` [Example 36, (1S,3R,5R)-3-{[5-[2-(4-Cyano-phenyl)-2H-pyrazol-3-yl]-4-methyl-2-oxo-3-(3-trifluoromethyl-phenyl)-2,3-dihydro-imidazole-1-carbonyl]-amino}-8,8-dimethyl-8-azonia-bicyclo[3.2.1]octane benzene sulfonate], the IC50 was under 1 nM. Under `Cc1c(-c2ccnn2-c2ccc(C#N)cc2)n(C(=O)NC2CC3(CC[N+](C)(C)CC3)C2)c(=O)n1-c1cccc(C(F)(F)F)c1` [Example 51, 2-{[5-[2-(4-Cyano-phenyl)-2H-pyrazol-3-yl]-4-methyl-2-oxo-3-(3-trifluoromethyl-phenyl)-2,3-dihydro-imidazole-1-carbonyl]-amino}-7,7-dimethyl-7-azonia-spiro[3.5]nonane benzene sulfonate] stands under 1 nM.

For `Cc1c(-c2ccnn2-c2ccc(C#N)cc2)n(C(=O)NC2(C)CCN(C(=O)C[N+](C)(C)C)CC2)c(=O)n1-c1cccc(C(F)(F)F)c1` [Example 84, [2-(4-{[5-[2-(4-Cyano-phenyl)-2H-pyrazol-3-yl]-4-methyl-2-oxo-3-(3-trifluoromethyl-phenyl)-2,3-dihydro-imidazole-1-carbonyl]-amino}-4-methyl-piperidin-1-yl)-2-oxo-ethyl]-trimethyl-ammonium benzene sulfonate], the IC50 was under 1 nM. Under `Cc1c(-c2ccnn2-c2ccc(C#N)cc2)n(C(=O)N[C@H]2CC[C@H](CNC(=O)CN(C)C)CC2)c(=O)n1-c1cccc(C(F)(F)F)c1` [Example 27, 5-[2-(4-Cyano-phenyl)-2H-pyrazol-3-yl]-4-methyl-2-oxo-3-(3-trifluoromethyl-phenyl)-2,3-dihydro-imidazole-1-carboxylic acid {trans-4-[(2-dimethylamino-acetylamino)-methyl]-cyclohexyl}-amide] stands under 1 nM; under `Cc1c(-c2ccnn2-c2ccc(C#N)cc2)n(C(=O)N[C@H](c2ncc(C[N+](C)(C)C)o2)C(C)C)c(=O)n1-c1cccc(C(F)(F)F)c1` [Example 73, [2-((S)-1-{[5-[2-(4-Cyano-phenyl)-2H-pyrazol-3-yl]-4-methyl-2-oxo-3-(3-trifluoromethyl-phenyl)-2,3-dihydro-imidazole-1-carbonyl]-amino}-2-methyl-propyl)-oxazol-5-ylmethyl]-trimethyl-ammonium benzene sulfonate], under 1 nM. Under `CC[n+]1ccc([C@H](C)NC(=O)n2c(-c3ccnn3-c3ccc(C#N)cc3)c(C)n(-c3cccc(C(F)(F)F)c3)c2=O)cc1` [Example 42, 4-((S)-1-{[5-[2-(4-Cyano-phenyl)-2H-pyrazol-3-yl]-4-methyl-2-oxo-3-(3-trifluoromethyl-phenyl)-2,3-dihydro-imidazole-1-carbonyl]-amino}-ethyl)-1-ethyl-pyridinium benzene sulfonate] stands under 1 nM; under `CC[N+](C)(C)[C@H]1CC[C@@H](NC(=O)n2c(-c3ccnn3-c3ccc(C#N)cc3)c(C)n(-c3cccc(C(F)(F)F)c3)c2=O)CC1` [Example 48, (Cis-4-{[5-[2-(4-cyano-phenyl)-2H-pyrazol-3-yl]-4-methyl-2-oxo-3-(3-trifluoromethyl-phenyl)-2,3-dihydro-imidazole-1-carbonyl]-amino}-cyclohexyl)-ethyl-dimethyl-ammonium benzene sulfonate], 1 to 10 nM; under `Cc1c(-c2ccnn2-c2ccc(C#N)cc2)n(C(=O)NC(C)c2nc(C[N+](C)(C)C)cs2)c(=O)n1-c1cccc(C(F)(F)F)c1` (racemic) [Example 85, ±[2-(1-{[5-[2-(4-Cyano-phenyl)-2H-pyrazol-3-yl]-4-methyl-2-oxo-3-(3-trifluoromethyl-phenyl)-2,3-dihydro-imidazole-1-carbonyl]-amino}-ethyl)-thiazol-4-ylmethyl]-trimethyl-ammonium benzene sulfonate], under 1 nM.

As for `Cc1c(-c2ccnn2-c2ccc(C#N)cc2)n(C(=O)NC(C)C2CC[N+](C)(C)CC2)c(=O)n1-c1cccc(C(F)(F)F)c1` (stereo not drawn) [Example 35, 4-(1-{[5-[2-(4-Cyano-phenyl)-2H-pyrazol-3-yl]-4-methyl-2-oxo-3-(3-trifluoromethyl-phenyl)-2,3-dihydro-imidazole-1-carbonyl]-amino}-ethyl)-1,1-dimethyl-piperidinium benzene sulfonate], the IC50 was under 1 nM. The result for `Cc1c(-c2ccnn2-c2ccc(C#N)cc2)n(C(=O)N[C@H]2CC[C@H](NC(=O)C[N+](C)(C)C)CC2)c(=O)n1-c1cccc(C(F)(F)F)c1` [Example 87, [(Trans-4-{[5-[2-(4-cyano-phenyl)-2H-pyrazol-3-yl]-4-methyl-2-oxo-3-(3-trifluoromethyl-phenyl)-2,3-dihydro-imidazole-1-carbonyl]-amino}-cyclohexylcarbamoyl)-methyl]-trimethyl-ammonium benzene sulfonate] reads under 1 nM.

What is called IC50 is the midpoint of a concentration-inhibition curve.
